The subject of one assay is THP-1 cells. As to the kind of experiment: Cytotoxicity assay: human THP-1 cell line (Alamar Blue). It counts as cell-based. The following applies: for IC50: Homo sapiens, THP-1, cytotoxicity, 48 h. The procedure: THP-1 cells were passed into fresh THP-1 culture medium. Cells were harvested by centrifugation (250×g, 10′, 4 °C), washed three times with RPMI 1640 medium, and diluted to 8 × 10^5 cells/mL. The cells were aliquoted in triplicate (125 μL/well) into 96-well flat-bottom plates containing compounds diluted in complete medium (125 μL/well, containing 0.01% DMSO). THP-1 cells in wells containing medium plus 0.01% DMSO served as negative controls. Cells were incubated with test compounds at 37 °C and 5% CO2 for 48 h prior to the addition of 10% Alamar Blue (25 μL/well). After an additional 4 h the fluorescence was read (λex = 544 nm, λem = 590 nm) using a microplate reader (Fluoroskan Ascent FL, Thermo Fisher Scientific, Waltham, MA, USA). Results were analysed using Prism 4 (GraphPad Software Inc., La Jolla, CA, USA). Experiments were performed in triplicate and were repeated at least twice.

The subject of assay [1] is human embryonic kidney (HEK-293) cells. Briefly: Cytotoxicity assay: human HEK-293 cell line (resazurin). The class given is cell-based. Conditions: for IC50: Homo sapiens, HEK293, cytotoxicity, 72 h, read-out: IC50 [µM], HEK-293. The procedure: Cytotoxicity against human embryonic kidney (HEK-293) cells was assessed as previously described. […] Cells were detached using Accutase treatment, then seeded into black clear-bottom 384-wells fluorescence microplates (Greiner), at a cell density of 44,000 cells/mL in 45 µL/well, using a Benchtop liquid dispenser (Thermo Fisher Multidrop). After seeding, the cells were brought back to the incubator and allowed to settle and reattach overnight. […] Plates were incubated at the standard condition above for 72 h. At the end of the incubation the medium in each well was replaced with 1 mM resazurin, and the plates were read using a multilabel microplate reader (PerkinElmer Envision) at 530 nm excitation and 595 nm emission wavelengths after a further 6 h incubation. Inhibition data was generated using Office Excel 2013 (Microsoft). IC50 values were calculated by fitting a four-parameter nonlinear regression model using Prism v.6.0 (Graphpad Software Inc., La Jolla, CA, USA).

One may read the IC50 as the concentration needed to halve the response being measured. On to `c1csc(Sc2ncnc3sccc23)n1` [Compound 8d], for which the IC50 was 27.5 µM in the assay with THP-1 cells and greater than 10 µM in assay [1].

Consider `Nc1nnc(Sc2ncnc3sccc23)s1` [Compound 8f], for which the IC50 was 11 µM in the assay with THP-1 cells and greater than 4 µM in assay [1].

Consider `c1coc(Sc2ncnc3sccc23)n1` [Compound 8e], for which the IC50 with THP-1 cells was 33.6 µM; in assay [1] it was greater than 10 µM. Moreover, the “selectivity THP-1 vs 3D7 parasites” value in the assay with THP-1 cells (IC50 THP-1 / IC50 3D7) is listed as 450 fold. In addition, the “selectivity toward human cell lines” value with THP-1 cells (human cell lines vs 3D7) is on record as greater than 100 fold. In addition, the “selectivity HEK-293 vs 3D7 parasites” value in assay [1] (IC50 HEK-293 / IC50 3D7) is on record as greater than 133 fold.

Turning to `c1ccc2[nH]c(Sc3ncnc4sccc34)nc2c1` [Compound 8g], the half-inhibitory concentration (IC50) is 16.5 µM with THP-1 cells and greater than 10 µM in assay [1].

With `Cn1ccnc1Sc1ncnc2sccc12` [Compound 8c], the IC50 with THP-1 cells is greater than 300 µM; in assay [1], greater than 40 µM.

`c1coc(-c2nnc(Sc3ncnc4sccc34)o2)c1` [Compound 3a]: the IC50 is 6.13 µM with THP-1 cells and greater than 10 µM in assay [1].

Regarding `c1cnc2[nH]c(Sc3ncnc4sccc34)nc2c1` [Compound 8k], the IC50 was 28 µM in the assay on THP-1 cells and greater than 20 µM in assay [1].

The record behind these values is article PMC5430599, “Antiplasmodial dihetarylthioethers target the coenzyme A synthesis pathway in Plasmodium falciparum erythrocytic stages” (Malaria Journal, 2017).
